Measured values as given in patent US9233961B2, “Compounds and compositions for the treatment of parasitic diseases” (Novartis AG, priority 2013, dated 2016).
Like-named read-outs stand apart in the source and are kept apart here.

What was measured:
[1] = test system: Trypanosoma brucei Lister 427 strain bloodstream form; assay: Assay for proliferation of kinetoplastid parasite Trypanosoma brucei; assay type: cell-based; conditions: read-out: T. brucei EC50
Source text: Assay for Proliferation of Kinetoplastid Parasite Trypanosoma brucei.
The proliferation is quantified by the addition of Cell Titer Glo (Promega®) a luminescent cell viability assay that measures the number of viable cells in culture based on the quantification of cellular ATP amount, which is an indicator of metabolically active cells.
The following assay illustrates the invention without in any way limiting the scope of the invention. This parasite proliferation assay measures the increase in parasite growth using an assay that measures ATP activity, Cell Titer Glo®.
Trypanosoma brucei Lister 427 strain is grown in HMI-9 Trypanosome media for T. brucei bloodstream form. 30 μl of HMI-9 media is dispensed into 384 well assay plates. 200 nl of compounds of the invention (in DMSO), including anti-trypanosome controls (Pentamidine and suramin), are then transferred into the assay plates, as well as DMSO alone to serve as a negative control for inhibition. Then 25 μl of a suspension of T. brucei culture in HMI-9 media is dispensed into the assay plates. The final concentration of parasites in culture corresponds to 1.7% of 0.5 uM ATP activity with Cell Titer Glo® in HMI-9 media. The plates are placed in a 37° C. incubator for 48 hours in an atmospheric environment containing 5% CO2. 40 μl of Cell Titer Glo® is dispensed into the plates. The plates are then read for luminescence. The percentage inhibition of 50%, EC50, is calculated for each compound.

[2] = test system: L. donovani HU3 strain in mouse peritoneal macrophages; assay: Assay for proliferation of Leishmania parasites in mouse peritoneal macrophages; assay type: cell-based, Leishmania donovani; conditions: Leishmania donovani, Peritoneal macrophage, read-out: L. donavani Macrophage EC50
Outline: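 EC50 derives from counting SYBR Green-stained parasite nuclei by high-content imaging after 5 days' compound exposure. Host cells were uninfected BALB/c peritoneal macrophages, infected for 24 h before dosing with spleen-derived L. donovani HU3 parasites from mice infected 9–11 weeks.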

[3] = test system: Leishmania donovani axenic amastigote parasites; assay: Leishmania donovani axenic amastigote proliferation assay; assay type: cell-based; conditions: read-out: L. donovani amastigotes EC50
Outline: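 EC50 values come from CellTiter-Glo luminescence after 2-day compound exposure of axenic amastigotes (9600 per well) at 37 °C, 5% CO2. Medium: RPMI 1640, 20% heat-inactivated FBS, folic acid, adenosine, D-glucose, 25 mM MES, adjusted to pH 5.5.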

[4] = Lister 427 bloodstream form, 48 hours

For `CNc1ccc(-c2cnc3nc(-c4cc(NC(=O)c5cc(C)cs5)ccc4Cl)[nH]c3c2)cc1` [Example 345, N-(4-chloro-3-{6-[4-(methylamino)phenyl]-1H-imidazo[4,5-b]pyridin-2-yl}phenyl)-4-methylthiophene-2-carboxamide], the EC50 [1, 4] was 0.277 µM, the EC50 [2] was 1.35 µM and the EC50 ([3]; axenic amastigotes in vitro) was 1.97 µM.
`Cc1cnc2nc(-c3cc(NC(=O)Cc4c(F)cccc4F)ccc3Cl)[nH]c2c1` [Compound 87] was tested, and the EC50 [1, 4] was over 6.9 µM, the EC50 [2] was 24.4 µM and the EC50 ([3]; axenic amastigotes in vitro) was over 25 µM.
`Cc1cnc2nc(-c3cc(NC(=O)c4ccc(S(C)(=O)=O)cc4)ccc3Cl)[nH]c2c1` [Compound 193] gave an EC50 [1, 4] of 15.2 µM, an EC50 [2] of over 50 µM and an EC50 ([3]; axenic amastigotes in vitro) of over 25 µM.
`Cc1cnc2nc(-c3cc(NC(=O)c4nc(C)oc4C)ccc3Cl)[nH]c2c1` [Compound 179] gave an EC50 [1, 4] of 5 µM, an EC50 [2] of over 50 µM and an EC50 ([3]; axenic amastigotes in vitro) of over 25 µM.
`CO[C@@H](C(=O)Nc1ccc(Cl)c(-c2nc3ncc(C)cc3[nH]2)c1)c1ccccc1` [Compound 181] gave an EC50 [1, 4] of over 14.5 µM, an EC50 [2] of over 30.5 µM and an EC50 ([3]; axenic amastigotes in vitro) of over 25 µM.
For `Cc1cnc2nc(-c3cc(NC(=O)Cn4cnnn4)ccc3Cl)[nH]c2c1` [Compound 170], the EC50 [1, 4] was over 25 µM, the EC50 [2] was over 50 µM and the EC50 ([3]; axenic amastigotes in vitro) was over 25 µM.
For `CN(C)CCOc1ccc(-c2cnc3nc(-c4cc(NC(=O)c5ccco5)ccc4Cl)[nH]c3c2)cc1` [Compound 69], the EC50 [1, 4] was 0.1 µM, the EC50 [2] was 2.74 µM and the EC50 ([3]; axenic amastigotes in vitro) was 18.1 µM.
`Cc1cnc2nc(-c3cc(NC(=O)c4cccc(S(C)(=O)=O)c4)ccc3Cl)[nH]c2c1` [Compound 140] gave an EC50 [1, 4] of 6.8 µM, an EC50 [2] of over 50 µM and an EC50 ([3]; axenic amastigotes in vitro) of over 25 µM.
Work on `Cc1cnc2nc(-c3cc(NC(=O)CNC(=O)OC(C)(C)C)ccc3Cl)[nH]c2c1` [Compound 112] yielded an EC50 [1, 4] of over 24.1 µM, an EC50 [2] of over 50 µM and an EC50 ([3]; axenic amastigotes in vitro) of over 25 µM.
With `Cc1cnc2nc(-c3cc(NC(=O)N4CCCCC4)ccc3Cl)[nH]c2c1` [Compound 239] the EC50 [1, 4] was 2.06 µM, the EC50 [2] was over 35.6 µM and the EC50 ([3]; axenic amastigotes in vitro) was 13.9 µM.
In the case of `Cc1cnc2nc(-c3cc(NC(=O)OCCF)ccc3Cl)[nH]c2c1` [Example 214, 2-Fluoroethyl N-(4-chloro-3-{6-methyl-1H-imidazo[4,5-b]pyridin-2-yl}phenyl)carbamate], the EC50 ([1]; 48 h) is reported as 2.25 µM, the EC50 [2] is reported as 27.5 µM and the EC50 [3] is reported as 8.4 µM.
`Cc1cnc2nc(-c3cc(NC(=O)c4cncn4C)ccc3Cl)[nH]c2c1` [Compound 207] gave an EC50 [1, 4] of over 25 µM, an EC50 [2] of over 50 µM and an EC50 ([3]; axenic amastigotes in vitro) of over 25 µM.
Molecule `Cc1cnc2nc(-c3cc(NC(=O)c4ccc(S(C)(=O)=O)cc4Cl)ccc3Cl)[nH]c2c1` [Compound 110] has an EC50 [1, 4] of over 13.6 µM, an EC50 [2] of 23.8 µM and an EC50 ([3]; axenic amastigotes in vitro) of over 25 µM.
`Cc1cnc2nc(-c3cc(NC(=O)c4nc(C)n[nH]4)ccc3Cl)[nH]c2c1` [Compound 203] showed an EC50 [1, 4] of over 25 µM, an EC50 [2] of over 50 µM and an EC50 ([3]; axenic amastigotes in vitro) of over 25 µM.
`Cc1cnc2nc(-c3cc(NC(=O)Cc4cccnc4)ccc3Cl)[nH]c2c1` [Compound 97] was tested, and the EC50 [1, 4] was over 18.7 µM, the EC50 [2] was over 50 µM and the EC50 ([3]; axenic amastigotes in vitro) was over 25 µM.
For `Cc1cnc2nc(-c3cc(NC(=O)Cc4ccc(Cl)cc4)ccc3Cl)[nH]c2c1` [Compound 144], the EC50 [1, 4] was over 11.3 µM, the EC50 [2] was 26 µM and the EC50 ([3]; axenic amastigotes in vitro) was over 25 µM.
In the case of `CCOC(=O)Nc1ccc(Cl)c(-c2nc3ncc(-c4ccc5c(c4)CC(=O)N5)cc3[nH]2)c1` [Compound 378], the EC50 [1, 4] is reported as 0.02 µM, the EC50 [2] is reported as 3.3 µM and the EC50 ([3]; axenic amastigotes in vitro) is reported as 0.69 µM.
`Cc1cnc2nc(-c3cc(Nc4nccc5c4CCN(Cc4ccccc4)C5)ccc3Cl)[nH]c2c1` [Compound 265] gave an EC50 [1, 4] of 8.2 µM, an EC50 [2] of 15.6 µM and an EC50 ([3]; axenic amastigotes in vitro) of over 25 µM.
For `Cc1cnc2nc(-c3cc(NC(=O)c4cc(Cl)cc(Cl)c4)ccc3Cl)[nH]c2c1` [Compound 196], the EC50 [1, 4] was 11.2 µM, the EC50 [2] was 11 µM and the EC50 ([3]; axenic amastigotes in vitro) was over 25 µM.
`O=C1Cc2cc(-c3cnc4nc(-c5cc(NC(=O)c6ccco6)ccc5Cl)[nH]c4c3)ccc2N1` [Compound 43] gave an EC50 [1, 4] of 0.0216 µM, an EC50 [2] of 6.9 µM and an EC50 ([3]; axenic amastigotes in vitro) of 0.73 µM.
